Measurements as given in patent US6780619B2, “D-aminoacylase and gene encoding the same” (priority 2000, dated 2004).

B1: D-aminoacylase: D-aminoacylase purified from Hypomyces mycophilus IFO 6785, comprising the amino acid sequence of SEQ ID NO: 2 (protein)
chain: MRTEILFHSATVITGDEAAQPFVADVLVSKGLIAKIGNPGSINATPDTRHLDVTGYILSPGFIDMHAHSDLYLLSHPDHEAKITQGCTTEVVGQDGISYAPIRNVDQLRAIREQIAGWNGNPTDEECRTTLKGVGMFEWQTIGEYLDCLERNRTATNVAMLVPQGNLRLLACGPYDTPASAEEIQDQIQLLREAMAQGAVGMSSGLTYTPGMYASTSELASLCAALAQEFPGAFYAPHHRSYGFQAIESYAEMLDLGESTGCPIHLTHATLNFSENKGKAPVLISMVDKSLAAGVDVTLDTYPYLPGCTTLAALLPSWASAGGPQETLKRLEDAESREKIRIAVEIKGCDGGHGIPTNWDEIQIGTTNEPSIASYSGRRLSEVAQSVGKPTIEVFFEILQKDKLATSCIMHVGNEENVRQIMQHRVHMAGSDGILHGQTLHPRAYGTFTRYLGHYSRELSLVALPSMIAHLTSRPAKRLSVYPYRGLIAEGSAADIVVFNPETVKDMSTYEEPKVPSRGIRFVLVNGQIAVDEGKMTGTRGGKTLRRSTDGKVKARDE

What was measured:
D-aminoacylase [1] = test: Stabilizer/activator effect on D-aminoacylase activity; assay type: biochemical, Hypomyces mycophilus
Description: (f) stabilizer: the enzyme activity is stabilized by reducing agents and activated by ICH2CONH2.

D-aminoacylase [2] = test: Substrate specificity of the D-aminoacylase (amino acid produced, assayed by TNBS or HPLC method); assay type: biochemical, Hypomyces mycophilus; settings: for catalytic activity of the D-aminoacylase for the substrate: 20 mM substrate, 50 mM Tris-HCl pH 7.5, 30° C., 20 minutes; for substrate specificity: the enzyme acts on / not on the substrate: purified enzyme, property (c)
Experimental: The substrate specificity of the D-aminoacylase of the present invention can be tested by the following procedure. For example, an enzyme solution (1 μl) is mixed and incubated with 50 mM Tris-HCl (pH 7.5) buffer (total volume: 1.0 ml) containing 20 mM substrate (various N-acetyl-D-amino acids) at 30° C. for 20 minutes. By measuring the amounts of amino acid synthesized by this reaction, enzymatic activities for respective substrates can be compared with each other. Assay for amino acid is performed by TNBS (trinitrobenzenesulfonic acid) method or HPLC method. For example, D-tryptophan, which may be used as a standard product in the reaction, is assayed for a comparison of enzymatic activity; by taking the amount of enzyme required for the production of 1 μmol D-tryptophan as 1 unit (or U), the reactivity is compared between different enzymes or is compared with the reactivity assayed for other types of amino acids.

[3] = in vivo; cited from earlier work
[4] = Optimal reaction temperature of the purified D-aminoacylase; assay type: biochemical, Hypomyces mycophilus; settings: reaction at pH 7.5
Experimental: (e) optimal temperature: for the reaction at pH 7.5, the enzyme activity is optimal at about 45° C.; and […]

| Molecule | catalytic activity of the D-aminoacylase for the substrate (D-aminoacylase [2]) | substrate specificity: the enzyme acts on / not on the substrate (D-aminoacylase [2]) | also measured |
| --- | --- | --- | --- |
| NC(=O)CI [ICH2CONH2] |  |  | effect on D-aminoacylase enzyme activity (D-aminoacylase [1]): activated |
| CC(=O)N[C@H](C(=O)O)C(C)C [N-acetyl-L-valine] | substantially no catalytic activity | not on |  |
| CC(=O)N[C@@H](CC(C)C)C(=O)O [N-acetyl-L-leucine] | substantially no catalytic activity | not on |  |
| CC(=O)N[C@@H](C(=O)O)C(C)C [N-acetyl-D-valine] | catalyzes the reaction | acts on |  |
| CSCC[C@H](NC(C)=O)C(=O)O [N-acetyl-L-methionine] | substantially no catalytic activity | not on |  |
| CC(=O)N[C@H](CC(C)C)C(=O)O [N-acetyl-D-leucine] | efficiently catalyzes the reaction | acts on |  |
| O=C(CCl)N[C@H](Cc1ccccc1)C(=O)O [N-chloroacetyl-D-phenylalanine] | very efficiently catalyzes the reaction |  |  |
| O=C1CCC(N2C(=O)c3ccccc3C2=O)C(=O)N1 [D(R)-form thalidomide, thalidomide] |  |  | teratogenic activity [3]: no teratogenic activity |
| CC(=O)N[C@@H](Cc1ccccc1)C(=O)O [N-acetyl-L-phenylalanine] | substantially no catalytic activity | not on |  |
| O=C1CCC(N2C(=O)c3ccccc3C2=O)C(=O)N1 [L(S)-form, thalidomide] |  |  | teratogenic activity [3]: strong teratogenicity |
| CSCC[C@@H](NC(C)=O)C(=O)O [N-acetyl-D-methionine] | efficiently catalyzes the reaction | acts on |  |
| CC(=O)N[C@H](Cc1ccccc1)C(=O)O [N-acetyl-D-phenylalanine] | very efficiently catalyzes the reaction | acts on |  |
| CC(=O)N[C@@H](Cc1c[nH]c2ccccc12)C(=O)O [N-acetyl-L-tryptophan] | substantially no catalytic activity | not on |  |
| CC(=O)N[C@H](Cc1c[nH]c2ccccc12)C(=O)O [N-acetyl-D-tryptophan] | efficiently catalyzes the reaction | acts on |  |
| B1 |  |  | optimal temperature of enzyme activity [4]: about 45 °C |
